The text below walks through data of publication PMC12716022, “Synthesis, In Silico, and Biological Evaluation of Non‐Hydroxamate Benzoic Acid–Based Derivatives as Potential Histone Deacetylase Inhibitors (HDACi)” (Chemistry & Biodiversity, 2025).

Structures are written as SMILES.

One data set concerns MCF‐7. In words: MTT in vitro cytotoxicity assay, MCF‐7. The note with it: for IC50: MTT, 72 h treatment, mean ± SD of three experiments in triplicates. Format: cell-based, human.
For data set [1], the system named is acetylated histone H3 and histone H4. As to the kind of experiment: Immunoblotting of acetylated histones in MCF‐7 cells. The note with it: IC50 concentration, 72 h, versus untreated control. Type of data set: cell-based, human. How it is done: Immunoblotting was performed to evaluate changes in the levels of acetylated histone H3 and histone H4, the main targets of HDAC enzymes. […] Protein concentrations were measured using the Bradford protein assay (BioRad, USA).
Proteins were separated on a 12%–15% SDS–PAGE gel and transferred onto a 0.45 µm nitrocellulose membrane (Santa Cruz Biotechnology, USA). The membranes were incubated overnight at 4°C with the following primary antibodies: rabbit anti‐Histone H3 Acetyl Lys9 (1:500; Abbkine, USA), rabbit anti‐Histone H4 Acetyl Lys12 (1:500; Abbkine, USA), and mouse anti‐GAPDH (1:2000; Invitrogen, USA). Following overnight incubation, the membranes were washed three times with TBST and incubated with the appropriate HRP‐conjugated secondary antibodies (R&D Systems, USA). After a 1‐h incubation, the membranes were washed again with TBST, and protein signals were developed using Pierce ECL western blotting substrate (Thermo Scientific) and visualized using the FluorChem R system (Oxford, UK).

The next data set concerns caspase genes. In words: qRT‐PCR of caspase expression in MCF‐7 cells. The note with it: MCF‐7, IC50, 72 h, versus control. Type of data set: cell-based, human. How it is done:
RNA was extracted using Trizol reagent, followed by purification with the Direct‐zol RNA Miniprep Extraction Kit (Zymo Research, USA). cDNA synthesis was performed using Takara PrimeScript RT Master Mix (Takara Bio Inc, USA). The qPCR mix was prepared as follows: 12.5 µL master mix (KAPA Biosystems, USA), 1 µL each of forward and reverse primers, 1 µL of cDNA, and nuclease‐free water to a final reaction volume of […]. qPCR amplification was carried out using the Line Gene 9680 BioER instrument with cycling parameters detailed as follows: activation stage at 50°C for 2 min; presoak stage at 95°C for 10 min; 40 cycles of denaturation at 95°C for 15 s, followed by annealing and extension at 60°C for 1 min; and finally, melting curve stage: 95°C for 15 s, 60°C for 15 s, 95°C for 15 s. Relative expression levels were analyzed using the ΔΔCt method, with fold changes normalized to housekeeping gene (GAPDH).

The next data set has as its system HepG2. As to the kind of experiment: MTT in vitro cytotoxicity assay, HepG2. Format: cell-based. The note with it: Homo sapiens, 72 h treatment, mean ± SD of three experiments in triplicates. Here is the method:
(§1) The following human cell lines obtained from American Type Culture Collection (ATCC) were used to elucidate the antiproliferative effect of the newly synthesized compounds: HepG2 (HB‐8065; hepatocellular carcinoma), MCF‐7 (HTB‐22; breast cancer), K562 (CCL‐243; myeloid leukemia), and MCF‐10A (CRL‐10317; normal mammary cells). MCF‐7 and K562 cells were maintained in RPMI‐1640 media (Capricorn, Germany), whereas HepG2 cells were grown in high‐glucose DMEM (Capricorn, Germany). All media used were supplemented with 10% fetal bovine serum (Gibco, USA), 1% L‐glutamine (Gibco, USA), and 1% penicillin/streptomycin (Gibco, USA). MCF‐10A cells were cultured in DMEM/F12 media (Capricorn, Germany) supplemented with 5% horse serum (Gibco, USA), epidermal growth factor (EGF; Sigma, USA), insulin (Sigma, USA), hydrocortisone (Sigma, USA), and cholera toxin (Sigma, USA). Cells were maintained in humidified incubator with 5% CO2 at 37°C.
(§2) To evaluate the effects of the compounds on cell proliferation and determine their inhibitory concentration (IC50), eight different concentrations (0.03, 0.1, 0.3, 1, 3, 10, 30, and 100 µM) of each compound were tested. Cells were seeded at a density of 5 × 10^3 cells per well in a 96‐well plate and incubated for 24 h to allow cell attachment. After 72 h of treatment, the media was removed, and 0.5 µg/µL MTT (3‐[4,5‐dimethylthiazol‐2‐yl]‐2,5‐diphenyltetrazolium bromide) was added. After a 4‐h incubation period, DMSO was added for 30–45 min to dissolve the formazan crystals formed. The absorbance was measured at 570 nm using a plate reader (Biotek Synergy HT Multi‐Mode Microplate Reader, USA), and the IC50 values were calculated accordingly. The experiment was performed three times with triplicates for each concentration.

Data set [2] deals with zinc‐dependent class I and II HDAC. In words: HDAC‐Glo I/II assay in MCF‐7 cells. Conditions: 2 h incubation, mean ± SD of two experiments in triplicates, read-out: Inhibition of HDAC enzyme activity EC50. Format: cell-based, human. How it is done:
HDAC activity in response to the new compounds was measured using the HDAC‐Glo I/II Assay and Screening System (Promega, USA), following the manufacturer's instructions. Briefly, MCF‐7 cells were seeded in a 96‐well plate at a density of 10 × 10^3 cells per well. After 24 h, the medium was replaced with serum‐free medium containing the different compounds. […] All compounds were tested at concentrations of 0.3, 3, 30, and 100 µM in triplicates. Cells were incubated with the drugs for 2 h before adding the HDAC‐Glo I/II reagent. The plate was gently mixed and incubated for 30 min. […] The experiment was run twice.

Data set [3] is described as follows: MTT in vitro cytotoxicity assay, normal MCF‐10A. Type of data set: cell-based. Conditions: MCF-10A normal mammary cells, 72 h treatment, normal human breast cells, mean ± SD.
The subject of another data set is caspase (3, 4, 8, or 9). As to the kind of experiment: Colorimetric caspase enzymatic assay in MCF‐7 cells. Type of data set: cell-based, human. The note with it: MCF‐7, IC50, 72 h, versus control. How it is done:
Caspase activity assay was performed using the colorimetric caspase assay kit from Abbkine following the manufacturer's protocol. Briefly, cells were collected, washed, and lysed in the working cell lysis buffer provided. The lysates were incubated on ice for 20 min, centrifuged at 16 000 g at 4°C for 15 min, and the supernatants were transferred to fresh tubes. Aliquots were added to a 96‐well plate, mixed with the working reaction buffer and the appropriate caspase substrate, and incubated at 37°C for 2 h. Absorbance was then measured at 405 nm using the Biotek Synergy HT Multi‐Mode Microplate Reader (USA). The experiment was run twice.

For the next data set, the system named is K562. As to the kind of experiment: MTT in vitro cytotoxicity assay, K562. Format: cell-based. The note with it: Homo sapiens, 72 h treatment, mean ± SD of three experiments in triplicates. How it is done:
as §1, §2

Data set [4] relates to MCF‐7 breast cancer cells. In words: TUNEL apoptosis detection in MCF‐7 cells. Type of data set: cell-based, human. Conditions: MCF‐7, IC50 concentration, 72 h, TUNEL; control 5.2%.
A further data set concerns HepG2, MCF‐7, K562. As to the kind of experiment: MTT cytotoxicity, single IC50 per compound given in Figure 5 (SAR). Format: cell-based. The note with it: Homo sapiens; in the SAR figure; matches the mean of the HepG2, MCF‐7 and K562 IC50 of Table 1. Here is the method:
as §2

In the case of `O=C(CNc1ccc(C(=O)O)cc1Cl)NN=Cc1ccc(O)cc1` [Compound A3bn, 3‐Chloro‐4‐((2‐(2‐(4‐Hydroxybenzylidene) Hydrazinyl)‐2‐Oxoethyl) Amino)Benzoic Acid], the IC50 in the data set on MCF‐7 (Homo sapiens, MCF7, 72 h) was found to be 20.3 µM; in the data set on MCF‐7, 39.2 ± 2.8 µM; with HepG2, 74.3 ± 8.3 µM; with K562, 42 ± 5.3 µM; in the data set with HepG2, MCF‐7, K562, 51.8 µM. The “Selectivity index (SI)” value in the data set on MCF‐7 (IC50 MCF‐10A divided by IC50 MCF‐7) was found to be 8. Further, the “acetylation of histones H3 and H4 (western blot)” value in [1] was “inhibited the deacetylation of H3 and H4”. The “caspase gene expression (mRNA)” value in the data set with caspase genes is reported as “increased the expression of caspase 8 gene”. In data set [2], the EC50 is 3.1 ± 0.3 µM. In [3], the IC50 at 72 h came out at 315 ± 35.3 µM. In the data set on caspase (3, 4, 8, or 9), the “caspase activation at the protein level” value is reported as “activating caspase 8”. Moreover, the “percentage of apoptotic cells” value in data set [4] worked out at 12.7%.
